For data set [1], the system named is Plasmodium falciparum. The data set can be described thus: Antiplasmodial activity against Plasmodium falciparum 3D7 assessed as inhibition of parasite growth at 8.66 ug/ml by SYBR Green I dye based assay. In kind it is functional, organism-based.
Data set [2] relates to Measles morbillivirus.
Description: (§1) Antiviral activity against measles virus rMV2/Luc infected in HEK-293T cells assessed as inhibition of virus growth incubated for 24 hrs by firefly luciferase reporter gene assay
Data set [3] is described as follows: Half life in human microsomes. In kind it is ADME, Microsome.
Data set [4] addresses T1, Dihydroorotate dehydrogenase (quinone), mitochondrial (Plasmodium falciparum (isolate 3D7)) (UniProt Q08210).
T1 sequence (whole entry): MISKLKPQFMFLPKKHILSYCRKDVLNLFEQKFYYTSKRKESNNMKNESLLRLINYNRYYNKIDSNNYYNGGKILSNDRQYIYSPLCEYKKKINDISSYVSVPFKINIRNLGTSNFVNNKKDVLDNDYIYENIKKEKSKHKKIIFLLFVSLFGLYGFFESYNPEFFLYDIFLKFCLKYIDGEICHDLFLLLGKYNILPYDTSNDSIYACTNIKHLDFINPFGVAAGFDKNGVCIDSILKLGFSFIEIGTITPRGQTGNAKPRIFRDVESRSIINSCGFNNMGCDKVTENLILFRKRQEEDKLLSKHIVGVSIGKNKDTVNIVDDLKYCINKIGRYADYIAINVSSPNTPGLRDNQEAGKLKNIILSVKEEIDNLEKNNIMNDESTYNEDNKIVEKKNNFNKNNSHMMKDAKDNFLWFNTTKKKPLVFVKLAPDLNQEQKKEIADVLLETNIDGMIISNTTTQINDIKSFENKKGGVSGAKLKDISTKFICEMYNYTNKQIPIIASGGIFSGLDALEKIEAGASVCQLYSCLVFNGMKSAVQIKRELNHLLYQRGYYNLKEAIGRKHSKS
The data set can be described thus: Inhibition of Plasmodium falciparum DHODH expressed in Escherichia coli by […]-based spectrophotometric method.

The subject of data set [5] is Plasmodium falciparum. Put plainly: Antiplasmodial activity against Plasmodium falciparum 3D7 assessed as inhibition of parasite growth by SYBR Green I dye based assay. In kind it is functional, organism-based.
Data set [6] deals with Jurkat. The data set can be described thus: Inhibition of cell proliferation of human Jurkat cells incubated for 72 hrs by Celltiter-Glo assay. Type of data set: functional, cell-based.
The subject of data set [7] is Measles morbillivirus. Put plainly: microbe, parasite or virus in culture. The settings on record: rMV2/Luc, 24 h.
Description: as §1

Values after ≈ are worked out from the molar mass of the structure shown. Active and inactive are the calls of the source.

In the case of `Cc1c(Oc2c(F)cccc2F)c(OC(C)C)nn1-c1ccc(C2CC2)cn1`, the “growth inhibition (GI)” value in data set [1] was “inactive”. Besides, the pMIC50 in data set [2] is 9. Besides, the t1/2 in data set [3] is reported as 6 min.

In the case of `Cc1c(Oc2c(F)cccc2F)c(OC(C)C)nn1-c1ncc(Br)cc1F`, the “growth inhibition (GI)” value in data set [1] is “inactive”. The molecule also displayed a pMIC50 in data set [2] of 6.9. The t1/2 in data set [3] was determined as 60 min.

As a reminder, the IC50 is the point on the concentration scale where inhibition reaches its midpoint. As to `Cc1c(Oc2c(F)cccc2F)c(OC(C)C)nn1-c1ccc(C2CC2)nn1`, the inhibition result in data set [4] was “inactive”. The IC50 in data set [5] stood at 0.33 µM.

Take `Cc1c(Oc2c(F)cccc2F)c(OC(C)C)nn1-c1ncc(C2CC2)cc1O`: in data set [1], the “growth inhibition (GI)” value is “inactive”. This molecule also came in with a pMIC50 in data set [2] of 8.1. In data set [3], this molecule displayed a t1/2 of 38 min.

Consider `COc1ccc(-n2nc(OC(C)C)c(Oc3c(F)cccc3F)c2C)nn1`, for which the “growth inhibition (GI)” value in data set [1] is “inactive”. In data set [2], this molecule showed a pMIC50 of 7.1. The same molecule displayed a t1/2 in data set [3] of 22 min.

In the case of `Cc1c(Oc2ccccc2F)c(OC(C)C)nn1-c1ccc(C2CC2)cn1`, the “growth inhibition (GI)” value in data set [1] was “inactive”. Besides, the pMIC50 in data set [2] was 7.4. In addition, the t1/2 in data set [3] is 4 min.

`Cc1ccc(-n2nc(OC(C)C)c(Oc3c(F)cccc3F)c2C)nn1`: the inhibition entry in data set [4] is “inactive”. In addition, the IC50 in data set [5] stood at 0.47 µM.

For `C/C(O)=C(\C#N)C(=O)Nc1ccc(C(F)(F)F)cc1` [TERIFLUNOMIDE], in data set [1], the “growth inhibition (GI)” value was “inactive”. This molecule displayed an IC50 in data set [6] of 60 µM. In data set [7], this molecule returned an MIC50 of 5 µM (≈ 1.35 µg/mL).

Consider `COc1ccc(-n2nc(OC(C)C)c(Oc3c(F)cccc3F)c2C)nc1`, for which, in data set [1], the “growth inhibition (GI)” value was “inactive”. In data set [2], this molecule showed a pMIC50 of 7.3.

On to `Cc1c(Oc2c(F)cccc2F)c(OC(C)C)nn1-c1ncc(C2CC2)cc1C#N`, for which, in data set [1], the “growth inhibition (GI)” value was “inactive”. Moreover, the pMIC50 in data set [2] is recorded as 8.1.

As for `Cc1c(Oc2ccc(F)cc2F)c(OC(C)C)nn1-c1ccc(C2CC2)nn1`, in data set [1], the “growth inhibition (GI)” value was “inactive”. In addition, the pMIC50 in data set [2] is given as 6.4.

With `Cc1c(Oc2cccc(F)c2F)c(OC(C)C)nn1-c1ccc(C2CC2)nn1`, in data set [1], the “growth inhibition (GI)” value was “inactive”. The same molecule yielded a pMIC50 in data set [2] of 7.4.

For the origin of these results see ChEMBL document CHEMBL3588748, “Original 2-(3-Alkoxy-1H-pyrazol-1-yl)azines Inhibitors of Human Dihydroorotate Dehydrogenase (DHODH)” (J Med Chem, 2015).
